Laboratory results from US20210093714A1, “Combination and method for inhibiting the cancer cells” (NATIONAL TAIWAN UNIVERSITY, priority 2013, published 2021).
Residues, ends and D or L forms follow the SMILES beside them. *: point of attachment. Cbz = O=C(OCc1ccccc1)*

Assays:
EGFR [1] = experiment: Western blot of CCN2-induced EGFR degradation; type: cell-based, human; settings: CL1-5 with CCN2
Procedure: (§1) Proteins ([…]) were separated by SDS-PAGE and transferred to a polyvinylidene difluoride membrane (Immobilon-P membrane; Millipore) by electrotransfer. The blot was blocked in a solution of 5% skim milk and 0.1% Tween 20 in PBS. Thereafter, membrane-bound proteins were probed with the following primary antibodies: CCN2, DAPK, phosphorylated ERK, ERK-1, phosphorylated Akt, Akt, TrkA, phosphorylated-Src, Src, b-actin, a-tubulin (Santa Cruz Biotechnology), p-EGFR, and EGFR (Cell Signaling Technology, Danvers, MA, USA). The membrane was washed and then incubated with HRP-conjugated secondary antibodies for 30 min. Enhanced chemiluminescence reagents (Amersham Pharmacia Biotech, Piscataway, N.J., USA) were employed to depict the protein bands on membranes. The light was captured on Kodak X-Omat Blue autoradiography film (PerkinElmer Life Sciences, Boston, Mass., USA).
This embodiment focuses on whether CCN2 interacts with EGFR. At first, the effect of MG132 and CCN2 on the degradation of EGFR in the lung adenocarcinoma cell line, CL1-5, and the effect of cycloheximide and CCN2 on the degradation of EGFR in the lung adenocarcinoma cell line, CL1-5,were observed by western blot analysis, the results shown in FIGS. 4A and 4B. […] On the other hand, cycloheximide can gradually promote CCN2-induced EGFR degradation and attenuated the protein signal intensity(Fold) of EGFR (attenuated from 0.74 to 0.39)(as shown in FIG. 4B) with increasing time (0 hours, 12 hours, 24 hours, 48 hours). Thus, CCN2 can destabilize EGFR and enhance the degradation of EGFR.

ERK = experiment: Western blot of ERK phosphorylation; type: cell-based, human; settings: CL1-5; PD98059 0, 10, 20 μM; FIG. 6E
Procedure: as §1
This embodiment focuses on the effect of CCN2 on the EGFR-induced signaling pathways. At first, the effect of exogenous CCN2(rCCN2) on the MAPK/AKT signaling pathways in the lung adenocarcinoma cell lines, CL1-5, A549 and CL1-0/siCCN2 was observed by western blot analysis, the results shown in FIG. 3A.

DAPK = experiment: Western blot of DAPK expression; type: cell-based, human; settings: CL1-5; PD98059 0, 10, 20 μM; FIG. 6E
Procedure: as §1
This embodiment focuses on the downstream signaling in CCN2-induced anoikis. At first, the effect of DAPK which can up-regulate CCN2 played on CCN2 induced anoikis and metastasis inhibition of lung adenocarcinoma cell lineswas observed by RT-PCR, dual luciferase reporter assay and western blot analysis, the results shown in FIGS. 6A to 6C. […] In addition, in the lung adenocarcinoma cell line, CL1-0/siCCN2, DAPK expression is suppressed, and DAPK expression also be suppressed with increasing dose (0 μg, 1μg, 3μg), (as shown on the top right in the FIG. 6C). Therefore, CCN2 induced DAPK expression in time- and dose-dependent manners.

[2] = test system: CCN2 transfected lung adenocarcinoma cell line, CL1-5; experiment: MTT Assay, chemotherapy drugs on CCN2 transfected CL1-5; type: cell-based, human; settings: suspended CCN2 transfected CL1-5; increasing dose 0 to 10 μM; 24 hrs; FIG. 8A
Procedure: First, the effect of CCN2 on the suspended lung adenocarcinoma cell line, CL1-5, treated with chemotherapy was observed by MTT Assay, the results shown in FIG. 8A (Cells were treated for 24 hrs, *P<0.05, **P<0.01). […] In this embodiment, paclitaxel treatment with a concentration between 1 μM and 10 μM is perferred, and 10 μM is most preferable; doxorubicin treatment with a concentration between 0.5 μM and 10 μM is perferred, and 5 μM is most preferable.

EGFR [3] = experiment: Immunoprecipitation and in vitro binding assay of CCN2 and EGFR; parameters: species or system human; settings: A549; rEGF 20 ng/mL for 24 h; rCCN2 100 ng/mL; FIG. 2C
Procedure: CCN2 transfectants were seeded overnight and incubated in serum-free media for 24 h. For immunoprecipitations, cells were lysed in an RIPA buffer (150 mM NaCl, 50 mM Tris-base, 5 mM EDTA, 1% NP-40, and 0.25% deoxycholate; pH 7.4). Protein concentrations were determined using the BCA protein assay kit (Pierce, Rockford, Ill., USA). Lysate was incubated for 2 h at 4[…] with gentle rotation with rabbit polyclonal antibodies for human EGFR, CCN2, or Src immobilized onto protein A—sepharose beads (Santa Cruz Biotechnology, Santa Cruz, Calif., USA). Beads were washed twice with an IP buffer (137 mM NaCl, 2.7 mM KCl, 1 mM MgCl2, 1 mM CaCl2, 1% NP-40, 10% glycerol, 1 mg/ml bovine serum albumin, and 20 mM Tris; pH 8.0), boiled in a sodium dodecyl sulfate-polyacrylamide gel electrophoresis (SDS-PAGE) sample buffer, and centrifuged (12000×g, 4° C. for 15 min).
The recombinant proteins rCCN2 (BioVendor Com. Heidelberg, Germany), rEGFR, and rEGF (R&D Techne Corporation) ([…]) were added in binding buffer (50 mM sodium phosphate, pH 7.5, 500 mM NaCl, and I% Nonidet P-40) and incubated with gentle rotation at 4° C. for 2 h. Thereafter, crosslinks were reversed by boiling in an SDS-PAGE sample buffer (containing 0.1M dithiothreitol (DTT)) before loading on SDS-PAGE gels for immunoblotting analysis. […]

EGFR [4] = target: T1, EGFR (Homo sapiens, UniProt P00533); experiment: FACS and western blot, CCN2 domain responsible for EGFR binding; type: cell-based; settings: suspended A549; rCT 100 ng/mL; FIG. 2G
T1 construct: endogenous in cells; host or cells: CL1-5 and A549 human lung adenocarcinoma cell lines
Procedure: After washing, cells were stained with an FITC-labelled goat anti-rabbit secondary antibody (Santa Cruz Biotechnology) for 30 min in the dark. Analysis was then conducted with an FACS Calibur cytometer (Collaborative Biomedical, BD Biosciences).

CC(C)C[C@@H](C=O)NC(=O)[C@H](CC(C)C)NC(=O)[C@H](CC(C)C)NC(=O)OCc1ccccc1 [MG132] (Cbz-Leu-Leu-Leu-aldehyde)
protein signal intensity(Fold) of EGFR (EGFR [1]; MG132, end of time course (24 hours), FIG. 4A): 1.41 Fold | protein signal intensity(Fold) of EGFR (EGFR [1]; MG132, start of time course (0 hours), FIG. 4A): 0.04 Fold

COc1cccc(-c2cc(=O)c3ccccc3o2)c1N [PD98059, reference compound]
p-ERK (ERK): gradually inhibit p-ERK | DAPK expression (DAPK): gradually increase the DAPK expression

C[C@@H]1C[C@@H]([C@H](O)CC2CC(=O)NC(=O)C2)C(=O)[C@@H](C)C1 [cycloheximide]
protein signal intensity(Fold) of EGFR (EGFR [1]; cycloheximide, end of time course (48 hours), FIG. 4B): 0.39 Fold | protein signal intensity(Fold) of EGFR (EGFR [1]; cycloheximide, start of time course (0 hours), FIG. 4B): 0.74 Fold

COc1cccc2c1C(=O)c1c(O)c3c(c(O)c1C2=O)C[C@@](O)(C(=O)CO)C[C@@H]3O[C@H]1C[C@H](N)[C@H](O)[C@H](C)O1 [doxorubicin]
cell apoptosis [2]: increase cell apoptosis more significantly

CC(=O)O[C@H]1C(=O)[C@@]2(C)[C@H]([C@H](OC(=O)c3ccccc3)[C@]3(O)C[C@H](OC(=O)[C@H](O)[C@@H](NC(=O)c4ccccc4)c4ccccc4)C(C)=C1C3(C)C)[C@]1(OC(C)=O)CO[C@@H]1C[C@@H]2O [paclitaxel]
cell apoptosis [2]: increase cell apoptosis more significantly

EGF: EGFR ligand, recombinant protein (R&D Techne Corporation) [reference compound]
effect on physical association between CCN2 and EGFR (EGFR [3]): do not block the physically association between CCN2 and EGFR

B1: rCT: carboxyl-terminal cystine knot (CT) domain of CCN2, CCN2 functional fragment (protein)
chain: KGKKCIRTPKISKPIKFELSGCTSMKTYRAKFCGVCTDGRCCTPHRTTTLPVEFKCPDGEVMKKNMMFIKTCACHYNCPGDNDIFESLYYRKMYGDMA
association of CT-domain of CCN2 with EGFR (EGFR [4]): has association relationship with EGFR
